Results reported in patent US20100105729A1, “ARYL-SUBSTITUTED HETEROCYCLIC PDE4 INHIBITORS AS ANTI-INFLAMMATORY AGENTS” (KALYPSYS, INC., priority 2006, published 2010).

target: T1, PDE4B (Homo sapiens, UniProt Q07343); test: PDE4 IMAP Assay; format: biochemical; conditions: catalytic domain of PDE4B, fluorescence polarization
T1 construct: hexa-histidine (His6) (N); made in house
Text: Compounds may be screened for functional potency in in vitro biochemical assays for their ability to inhibit the activity of phosphodiesterase (PDE) enzymes. A commercial PDE assay, Molecular Device's PDE IMAP assay, was modified and utilized to measure the inhibitory activity of compounds on PDE isoforms. The IMAP technology is based on the high affinity binding of phosphate by immobilized metal (MIII) coordination complexes on nanoparticles. This IMAP “binding reagent” complexes with phosphate groups on the nucleotide monophosphates generated in the reaction. Such binding causes a change in the rate of the molecular motion of the nucleotide, and results in an increase in the fluorescence polarization value observed for the fluorescent label attached to the substrate. PDE inhibitors prevent the generation of nucleotide monophosphates and the subsequent increase in polarization value observed for the fluorescent label attached to the substrate. The catalytic domain of PDE4B was fused to an amino-terminus hex-histadine affinity tag and purified. PDE4B enzyme was incubated with compounds for 10 minutes. Fluorescently labeled cyclic AMP substrates were then added to the PDE enzyme mix and incubated for 2 hours at room temperature. IMAP binding reagent was then added to the enzyme mix, incubated for 10-30 minutes and fluorescent polarization of the fluorescently labeled substrate was read either with the Perkin Elmer Viewlux or Molecular Devices Acquest or Analyst. Roflumilast and Rolipram are the positive controls used in the assay.

T1 sequence (Q07343 330-659 limits assumed, species assumed): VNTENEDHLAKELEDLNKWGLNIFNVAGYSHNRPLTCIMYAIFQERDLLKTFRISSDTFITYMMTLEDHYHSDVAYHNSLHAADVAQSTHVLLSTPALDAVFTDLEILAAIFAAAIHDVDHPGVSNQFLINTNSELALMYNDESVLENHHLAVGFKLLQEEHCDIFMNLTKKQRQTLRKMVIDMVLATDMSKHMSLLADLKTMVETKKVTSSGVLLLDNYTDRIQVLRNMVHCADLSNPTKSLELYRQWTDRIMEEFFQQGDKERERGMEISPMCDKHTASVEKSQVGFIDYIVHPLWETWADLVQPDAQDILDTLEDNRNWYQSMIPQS

| Compound | inhibition at 10 µM [%] |
| --- | --- |
| COc1cccc(C2CC(c3ccc(OC)c(OC)c3)=NN2S(C)(=O)=O)c1 (centres unmarked) [Example 4, 3-(3,4-dimethoxyphenyl)-5-(3-methoxyphenyl)-1-(methylsulfonyl)-4,5-dihydro-1H-pyrazole] | < 50 |
| COc1ccc(C2=NN(C(C)=O)C(c3ccccc3OC)C2)cc1OC (centres unmarked) [Example 105, 1-(3-(3,4-dimethoxyphenyl)-5-(2-methoxyphenyl)-4,5-dihydro-1H-pyrazol-1-yl)ethanone] | < 50 |
| COc1ccc(C2=NN(C(=O)c3ccccc3Cl)C(c3ccc(C)cc3)C2)cc1OC (centres unmarked) [Example 32, (2-chlorophenyl)(3-(3,4-dimethoxyphenyl)-5-p-tolyl-4,5-dihydro-1H-pyrazol-1-yl)methanone] | < 50 |
| COc1ccc(C2=NN(C(C)=O)C(c3ccccc3F)C2)cc1OC (centres unmarked) [Example 104, 1-(3-(3,4-dimethoxyphenyl)-5-(2-fluorophenyl)-4,5-dihydro-1H-pyrazol-1-yl)ethanone] | < 50 |
| COc1ccc(C2=NN(S(=O)(=O)c3ccc(C)cc3)C(c3cn(-c4ccccc4)nc3-c3ccccc3)C2)cc1OC (centres unmarked) [Example 24, 4-(3-(3,4-dimethoxyphenyl)-1-tosyl-4,5-dihydro-1H-pyrazol-5-yl)-1,3-diphenyl-1H-pyrazole] | < 50 |
| CCc1ccc(C2CC(c3ccc(OC)c(OC)c3)=NN2C(=O)CCCC(=O)O)cc1 (centres unmarked) [Example 18, 5-(3-(3,4-dimethoxyphenyl)-5-(4-ethylphenyl)-4,5-dihydro-1H-pyrazol-1-yl)-5-oxopentanoic acid] | < 50 |
| COc1ccc(C2=NN(S(C)(=O)=O)C(c3ccc(C)cc3)C2)cc1OC (centres unmarked) [Example 13, 3-(3,4-dimethoxyphenyl)-1-(methylsulfonyl)-5-p-tolyl-4,5-dihydro-1H-pyrazole] | < 50 |
| COc1ccc2nc(Cl)c(C3CC(c4ccc(OC)c(OC)c4)=NN3C(=O)c3ccco3)cc2c1 (centres unmarked) [Example 9, (5-(2-chloro-6-methoxyquinolin-3-yl)-3-(3,4-dimethoxyphenyl)-4,5-dihydro-1H-pyrazol-1-yl)(furan-2-yl)methanone] | < 50 |
| COc1ccc(C2=NN(C(=O)c3cc(OC)c(OC)c(OC)c3)C(c3ccc(Br)cc3)C2)cc1OC (centres unmarked) [Example 44, (5-(4-bromophenyl)-3-(3,4-dimethoxyphenyl)-4,5-dihydro-1H-pyrazol-1-yl)(3,4,5-trimethoxyphenyl)methanone] | ≥ 50 |
| COc1ccc(C2=NN(C(=O)CCCC(=O)O)C(c3ccc(F)cc3)C2)cc1OC (centres unmarked) [Example 65, 5-(3-(3,4-dimethoxyphenyl)-5-(4-fluorophenyl)-4,5-dihydro-1H-pyrazol-1-yl)-5-oxopentanoic acid] | < 50 |
| COc1ccc2nc(Cl)c(C3CC(c4ccc(OC)c(OC)c4)=NN3C(=O)c3ccccc3Cl)cc2c1 (centres unmarked) [Example 6, (5-(2-chloro-6-methoxyquinolin-3-yl)-3-(3,4-dimethoxyphenyl)-4,5-dihydro-1H-pyrazol-1-yl)(2-chlorophenyl)methanone] | < 50 |
| COc1ccc(C2=NN(S(C)(=O)=O)C(c3c(F)cccc3Cl)C2)cc1OC (centres unmarked) [Example 3, 5-(2-chloro-6-fluorophenyl)-3-(3,4-dimethoxyphenyl)-1-(methylsulfonyl)-4,5-dihydro-1H-pyrazole] | < 50 |
| COc1ccc(C2=NN(C(=O)c3cc(OC)c(OC)c(OC)c3)C(c3ccc(Cl)cc3)C2)cc1OC (centres unmarked) [Example 43, (5-(4-chlorophenyl)-3-(3,4-dimethoxyphenyl)-4,5-dihydro-1H-pyrazol-1-yl)(3,4,5-trimethoxyphenyl)methanone] | ≥ 50 |
| COc1ccc(C2=NN(C(=O)CCC(=O)O)C(c3cc4ccccc4nc3Cl)C2)cc1OC (centres unmarked) [Example 27, 4-(5-(2-chloroquinolin-3-yl)-3-(3,4-dimethoxyphenyl)-4,5-dihydro-1H-pyrazol-1-yl)-4-oxobutanoic acid] | < 50 |
| COc1ccc(C2=NN(C(C)=O)C(c3cc4ccc(C)cc4nc3Cl)C2)cc1OC (centres unmarked) [Example 75, 1-(5-(2-chloro-7-methylquinolin-3-yl)-3-(3,4-dimethoxyphenyl)-4,5-dihydro-1H-pyrazol-1-yl)ethanone] | < 50 |
| COc1ccc(C2=NN(C(=O)c3cc(OC)c(OC)c(OC)c3)C(c3ccc(C)cc3)C2)cc1OC (centres unmarked) [Example 45, (3-(3,4-dimethoxyphenyl)-5-p-tolyl-4,5-dihydro-1H-pyrazol-1-yl)(3,4,5-trimethoxyphenyl)methanone] | ≥ 50 |
| COc1ccc(C2=NN(S(=O)(=O)c3ccccc3)C(c3cn(-c4ccccc4)nc3-c3ccccc3)C2)cc1OC (centres unmarked) [Example 25, 4-(3-(3,4-dimethoxyphenyl)-1-(phenylsulfonyl)-4,5-dihydro-1H-pyrazol-5-yl)-1,3-diphenyl-1H-pyrazole] | < 50 |
| COc1ccc(C2=NN(C(=O)CCC(=O)O)C(c3cccc(OC)c3OC)C2)cc1OC (centres unmarked) [Example 69, 4-(5-(2,3-dimethoxyphenyl)-3-(3,4-dimethoxyphenyl)-4,5-dihydro-1H-pyrazol-1-yl)-4-oxobutanoic acid] | < 50 |
| COc1ccc(C2=NN(C(=O)c3ccc(Br)o3)C(c3ccccc3Cl)C2)cc1OC (centres unmarked) [Example 50, (5-bromofuran-2-yl)(5-(2-chlorophenyl)-3-(3,4-dimethoxyphenyl)-4,5-dihydro-1H-pyrazol-1-yl)methanone] | < 50 |
| COc1ccc(C2=NN(C(C)=O)C(c3cc4ccccc4nc3Cl)C2)cc1OC (centres unmarked) [Example 28, 1-(5-(2-chloroquinolin-3-yl)-3-(3,4-dimethoxyphenyl)-4,5-dihydro-1H-pyrazol-1-yl)ethanone] | < 50 |
| COc1ccc(C2=NN(C(C)=O)C(c3ccc(F)cc3)C2)cc1OC (centres unmarked) [Example 102, 1-(3-(3,4-dimethoxyphenyl)-5-(4-fluorophenyl)-4,5-dihydro-1H-pyrazol-1-yl)ethanone] | ≥ 50 |
| COc1ccc(C2=NN(S(=O)(=O)c3ccccc3)C(c3cccc(OC)c3OC)C2)cc1OC (centres unmarked) [Example 90, 5-(2,3-dimethoxyphenyl)-3-(3,4-dimethoxyphenyl)-1-(phenylsulfonyl)-4,5-dihydro-1H-pyrazole] | < 50 |
| COc1ccc(C2=NN(C(=O)c3cccs3)C(c3cccc(OC)c3OC)C2)cc1OC (centres unmarked) [Example 38, (5-(2,3-dimethoxyphenyl)-3-(3,4-dimethoxyphenyl)-4,5-dihydro-1H-pyrazol-1-yl)(thiophen-2-yl)methanone] | ≥ 50 |
| COc1ccc(OC)c(C2CC(c3ccc(OC)c(OC)c3)=NN2C(=O)c2ccccc2Cl)c1 (centres unmarked) [Example 29, (2-chlorophenyl)(5-(2,5-dimethoxyphenyl)-3-(3,4-dimethoxyphenyl)-4,5-dihydro-1H-pyrazol-1-yl)methanone] | < 50 |
| COc1ccc(C2CC(c3ccc(OC)c(OC)c3)=NN2S(=O)(=O)c2ccc(C)cc2)cc1 (centres unmarked) [Example 92, 3-(3,4-dimethoxyphenyl)-5-(4-methoxyphenyl)-1-tosyl-4,5-dihydro-1H-pyrazole] | < 50 |
| COc1ccc(C2=NN(C(C)=O)C(c3cc4cc(C)ccc4nc3Cl)C2)cc1OC (centres unmarked) [Example 74, 1-(5-(2-chloro-6-methylquinolin-3-yl)-3-(3,4-dimethoxyphenyl)-4,5-dihydro-1H-pyrazol-1-yl)ethanone] | < 50 |
